The conditions of data set [1]: 5 mg/kg b.w., i.p.; cited from earlier work.
For data set [2] the following is noted: 5 mg/kg b.w., i.p.; cited from earlier work. This is another data set of the same source.
The target in the next data set is T1, TAAR1 (Homo sapiens, UniProt Q96RJ0).
T1 sequence (Q96RJ0 1-339): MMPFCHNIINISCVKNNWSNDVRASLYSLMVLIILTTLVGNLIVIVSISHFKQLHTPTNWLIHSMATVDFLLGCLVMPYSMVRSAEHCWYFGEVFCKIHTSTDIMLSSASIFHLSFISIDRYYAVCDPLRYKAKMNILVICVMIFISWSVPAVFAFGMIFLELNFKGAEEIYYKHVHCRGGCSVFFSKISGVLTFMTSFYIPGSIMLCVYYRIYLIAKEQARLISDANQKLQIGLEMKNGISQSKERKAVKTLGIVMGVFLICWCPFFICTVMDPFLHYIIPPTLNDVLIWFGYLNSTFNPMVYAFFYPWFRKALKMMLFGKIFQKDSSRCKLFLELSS
The arrangement: method as in PMID 21525407. Conditions: summary table; cited from earlier work.

The conditions of data set [3]: 5 mg/kg b.w., i.p.; cited from earlier work. The source holds these as a separate data set.
The conditions of data set [4]: 5 mg/kg b.w., i.p.; cited from earlier work. The source holds these as a separate data set.
A short description of data set [5]: Core body temperature of obese rats (implanted logger). The class given is in vivo, rat. The note with it: for temperature after administration: hight-fat diet, 5mg/kg, individual rats 1-6. The procedure:
Animals with induced obesity (two more groups) were subcutaneously implanted with a DST micro-HRT heart rate logger (Star-Oddi, Island), which simultaneously measured long-term core temperature. Under general anesthesia (thiopental, 70 mg/kg, ip), the loggers were inserted under the skin in the groin area and sutured with a surgical thread. Forty-eight hours later, the baseline temperature was measured, and at 9:30 AM, 4-OH-Guanabenz was administered ip at a dose of 5 mg/kg b.w. The first measurement was recorded 30 min after the administration of the test compound, and then, the temperature was recorded every hour. After 24 h, the loggers were removed, the temperature data were read, and Mercury software (Star-Oddi Mercury Data Logger PC Software, Iceland) was used to collect and analyze the information obtained. Using this technology, measurements are made without the direct intervention of the researcher; therefore, there is no disturbance in the readings evoked by stress in the animals.

Data set [6] is described as follows: Food intake of rats fed a high-fat diet. Type of data set: in vivo, rat. The note with it: for food intake: high-fat diet, groups (cages) 1-3. Here is the method: Male Wistar rats were housed in pairs and fed a high-fat diet consisting of a 40% fat blend (Labofeed B with 40% lard, Morawski, Manufacturer Feed, Poland) for 14 weeks, with water available ad libitum. Control rats were fed a standard diet (Labofeed B, Morawski Manufacturer Feed, Poland). After 10 weeks, rats with obesity-induced via their diet were randomly divided into three equal groups that had the same mean body weight and were treated ip with test compounds at doses of 2 or 5 mg/kg b.w./day (high-fat diet + 4OHGuanabenz) or control group: vehicle–water 0.3 ml/kg (high-fat diet + vehicle = obesity control group) once a day in the morning between 9:00 AM and 10:00 AM for 25 days. Control rats were maintained on a standard diet, with ip administration of vehicle – water (standard diet + vehicle = control group).
The high-fat diet contained 550 kcal and the standard diet 280 kcal per 100 g.
Food intake was measured three times a week, immediately before drug administration. In this target, food was provided to the animals in a certain amount (100 g/cage). The weight of food was measured using dedicated scale (WPT 1C, RADWAG Wagi Elektroniczne, Poland). Next, the total amount of food that the animals had not eaten during that period of time was collected from each cage and weighed, and then, the data were recorded. The next portion of food was subsequently weighed before serving, and so on.

A short description of data set [7]: Plasma glucose, triglyceride and total cholesterol of obese rats. Type of data set: in vivo, rat. The note with it: for plasma glucose concentration / plasma total cholesterol concentration / plasma triglyceride concentration: high-fat diet, single rats 1-6. The procedure:
On the 26th day of the experiment, 20 min after ip administration of heparin (5000 IU/rat) and thiopental (70 mg/kg b.w.), plasma was collected from the left carotid artery and then centrifuged at 600 × g (15 min, 4 °C) to obtain the plasma.
To determine the glucose, triglyceride, or cholesterol level in plasma, standard enzyme and spectrophotometric tests (Biomaxima S.A. Lublin, Poland) were used. The substrate was decomposed with enzymes appropriate for the relevant product, which was converted to a colored compound. The colouration was proportional to the concentration. The absorbance was measured at a wavelength of 500 nm.

The source of these data is paper PMC10539439 (Pharmacological Reports, 2023).

“And” between values parts separate entries of the source, which are not always exact repeats. Identical values can stand only once.

Take `N=C(N)N/N=C/c1c(Cl)cccc1Cl` [Guanabenz]: the Core temperature result in data set [1] was “↓ [17]”. Also, in data set [2], the “Blood pressure after one administration” value was “Change [17]”. In addition, the “Intrinsic activity at TAAR1” value at TAAR1 is “Agonist [48]”. The “Amount of calories consumed” value in data set [3] is “↓ [17]”. In data set [4], the “Body weight of obese animals” value was “↓ [17]”.
Take `Cl.N=C(N)NN=Cc1c(Cl)cc(O)cc1Cl` [4-OH-Guanabenz, 2-[(2,6-Dichloro-4-hydroxyphenyl)methylene]hydrazinecarboximidamide Hydrochloride]: the temperature after administration in data set [5] (hour 1) was 37.56 ⚬C and 36.75 ⚬C and 37.32 ⚬C and 36.19 ⚬C and 36.67 ⚬C and 36.9 ⚬C; in data set [5] (hour 2), 36.89 ⚬C and 36.98 ⚬C and 36.3 ⚬C (2×) and 37.12 ⚬C and 35.67 ⚬C; in data set [5] (hour 3), 36.21 ⚬C and 36.64 ⚬C and 36.08 ⚬C and 35.74 ⚬C and 36.23 ⚬C and 35.01 ⚬C; in data set [5] (hour 4), 36.66 ⚬C and 36.98 ⚬C and 36.64 ⚬C and 35.41 ⚬C and 35.89 ⚬C and 36.48 ⚬C; in data set [5] (hour 5) it was 37 ⚬C and 36.98 ⚬C and 36.95 ⚬C and 36.08 ⚬C and 36.45 ⚬C and 36.9 ⚬C; in data set [5] (hour 6) it was 37.34 ⚬C and 36.75 ⚬C and 36.87 ⚬C and 36.44 ⚬C and 36.59 ⚬C and 36.9 ⚬C. The temperature after administration in data set [5] (hour 7) is 36.77 ⚬C and 36.64 ⚬C (2×) and 36.19 ⚬C and 36.78 ⚬C and 36.45 ⚬C; in data set [5] (hour 8), 37 ⚬C and 36.53 ⚬C and 36.75 ⚬C and 36.42 ⚬C and 36.67 ⚬C and 36.78 ⚬C; in data set [5] (hour 9) it was 37.34 ⚬C and 36.42 ⚬C and 36.64 ⚬C and 36.98 ⚬C and 36.78 ⚬C and 36.67 ⚬C; in data set [5] (hour 10), 37.34 ⚬C and 36.5 ⚬C and 36.87 ⚬C and 36.53 ⚬C and 36.67 ⚬C and 37.01 ⚬C; in data set [5] (hour 11), 37 ⚬C and 36.64 ⚬C and 36.08 ⚬C and 37.09 ⚬C and 36.67 ⚬C and 36.56 ⚬C; in data set [5] (hour 12), 37 ⚬C and 36.53 ⚬C (2×) and 36.87 ⚬C and 36.56 ⚬C and 37.35 ⚬C. Besides, the temperature after administration in data set [5] (hour 13) was 37.22 ⚬C and 37.09 ⚬C and 36.75 ⚬C and 36.64 ⚬C and 36.56 ⚬C and 36.67 ⚬C; in data set [5] (hour 14) it was 37.34 ⚬C and 36.42 ⚬C (3×) and 36.78 ⚬C and 37.12 ⚬C; in data set [5] (hour 15), 37.34 ⚬C and 36.53 ⚬C (2×) and 36.08 ⚬C and 36.56 ⚬C and 36.45 ⚬C; in data set [5] (hour 16), 37.34 ⚬C and 37.09 ⚬C and 36.64 ⚬C and 35.97 ⚬C and 36.34 ⚬C and 36.56 ⚬C; in data set [5] (hour 17) it was 37 ⚬C and 37.09 ⚬C and 36.53 ⚬C and 36.67 ⚬C and 36.45 ⚬C and 37.23 ⚬C; in data set [5] (hour 18), 37.45 ⚬C and 36.53 ⚬C and 36.3 ⚬C and 37.21 ⚬C and 36.56 ⚬C and 36.34 ⚬C. The temperature after administration in data set [5] (hour 19) was 36.6 ⚬C and 36.75 ⚬C and 36.53 ⚬C and 36.3 ⚬C and 36.67 ⚬C (2×); in data set [5] (hour 20) it was 37.22 ⚬C and 37.32 ⚬C and 36.19 ⚬C and 35.97 ⚬C and 36.56 ⚬C and 36.23 ⚬C; in data set [5] (hour 21) it was 37.45 ⚬C and 36.08 ⚬C (2×) and 36.19 ⚬C and 36.78 ⚬C and 36.12 ⚬C; in data set [5] (hour 22), 36.77 ⚬C and 36.3 ⚬C and 35.86 ⚬C and 36.08 ⚬C and 36.45 ⚬C and 36.12 ⚬C; in data set [5] (hour 23), 36.89 ⚬C and 36.3 ⚬C and 36.19 ⚬C and 36.53 ⚬C and 36.34 ⚬C and 36.23 ⚬C; in data set [5] (hour 24), 36.66 ⚬C and 36.64 ⚬C and 36.3 ⚬C and 36.19 ⚬C and 36.78 ⚬C and 35.89 ⚬C. Also, the “effect on core temperature (in words)” value in data set [5] (obese rats, 5 mg/kg b.w. ip, vs obese control) is recorded as “No significant effects on core temperature”. In addition, in data set [6] (high-fat diet rats, ip at both doses (2 or 5 mg/kg b.w.), vs obesity control group), the “effect on calories consumed (in words)” value is “reduced the number of calories consumed”. Besides, the food intake in data set [6] (2mg/kg, week 1, 2 mg/kg) is 995.5 kcal/2rats and 924 kcal/2rats and 960 kcal/2rats; in data set [6] (2mg/kg, week 2, 2 mg/kg), 891 kcal/2rats and 654.5 kcal/2rats and 772.5 kcal/2rats; in data set [6] (2mg/kg, week 3, 2 mg/kg), 880 kcal/2rats and 863.5 kcal/2rats and 871.5 kcal/2rats; in data set [6] (5mg/kg, week 1, 5 mg/kg), 363 kcal/2rats and 478.5 kcal/2rats and 346.5 kcal/2rats; in data set [6] (5mg/kg, week 2, 5 mg/kg), 561 kcal/2rats and 621.5 kcal/2rats and 693 kcal/2rats; in data set [6] (5mg/kg, week 3, 5 mg/kg), 599.5 kcal/2rats and 594 kcal/2rats and 665.5 kcal/2rats. Moreover, the “effect on plasma total cholesterol (in words)” value in data set [7] (high-fat diet rats, 5 mg/kg b.w.) is “highest plasma level of total cholesterol”. The “effect on plasma triglyceride level (in words)” value in data set [7] (high-fat diet rats, 5 mg/kg b.w., vs obese control) is listed as “significantly decreased plasma triglyceride levels”. In addition, the plasma glucose concentration was 4.77 mmol/L and 5.43 mmol/L and 6.06 mmol/L and 5.37 mmol/L and 5.51 mmol/L in data set [7] (2mg/kg); 4.45 mmol/L and 5.37 mmol/L and 4.63 mmol/L and 5.39 mmol/L and 3.28 mmol/L and 4.68 mmol/L in data set [7] (5mg/kg). Further, the “plasma total cholesterol concentration” value is 0.86 mmol/L and 0.71 mmol/L and 0.87 mmol/L and 0.75 mmol/L and 0.78 mmol/L and 0.93 mmol/L in data set [7] (2mg/kg); 0.93 mmol/L and 0.87 mmol/L and 0.8 mmol/L and 1.08 mmol/L and 0.88 mmol/L and 0.84 mmol/L in data set [7] (5mg/kg). Besides, the plasma triglyceride concentration is 0.17 mmol/L and 0.12 mmol/L and 0.21 mmol/L and 0.13 mmol/L and 0.14 mmol/L in data set [7] (2mg/kg); 0.12 mmol/L and 0.2 mmol/L and 0.1 mmol/L and 0.13 mmol/L and 0.18 mmol/L in data set [7] (5mg/kg). In addition, the “effect on blood glucose level (in words)” value in data set [7] (obese rats, both doses (2 or 5 mg/kg b.w.), vs obese animals treated with water) is “significantly lower blood glucose levels”.
